Data published in US20070059785A1, “Biomarkers in cancer” (SMITHKLINE BEECHAM CORPORATION, priority 2003, published 2007).

Assays:
S1 cells = assay: Cell cycle analysis (propidium iodide, flow cytometry), apoptosis of S1 cells; details: 5 μM, 72 h
Protocol: The percentage of cells in G1, S phase, and G2/M are indicated. The sub-G1 peak represents the apoptotic fraction.
Cells were harvested and fixed with 70% ethanol in PBS. Cell pellets were then resuspended in 0.5 ml PBS containing propidium iodide (50 μg/ml) and DNase-free RNase (100 μg/ml). Cell cycle analysis was performed using a BD Flow Cytometer (Becton Dickinson, San Jose, Calif., USA).
After 72 h, cell cycle analysis was performed using propidium iodide staining and flow cytometry as described in Materials and methods.

solid tumors = assay: Open-label clinical study, clinical response (RECIST); format: in vivo, human
erbB2 [1] = molecular target: T1, erbB2 (Homo sapiens, UniProt P04626); assay: Tumor xenografts, activated and total erbB2 by quantitative IHC; format: in vivo, mice; details: HN5 and BT474 xenografts, 200 mg/kg oral once daily
p-ERK = assay: Antibody staining of p-ERK localization in MCF7/erbB2 cells; format: cell-based, human; details: 10 uM, results not shown
AKT [2] = assay: Western blot of p-AKT in BT474 cells; format: cell-based, human; details: BT474, 1 μM, 24 h serum-free; not reversed by EGF
Protocol: (§1) The erbB2 overexpressing human breast adenocarcinoma cell line, BT474, was obtained from the American Type Culture Collection (Rockville, M, USA). […] The EGFR overexpressing LICR-LON-HN5 head and neck carcinoma cell line, HN5, was kindly provided by Helmout Modjtahedi at the Institute of Cancer Research, Surrey, U.K.
(§2) For IP Western blots, equivalent amounts of protein were precleared with Protein G Plus/Protein A agarose overnight at 4° C. Precleared lysates were then incubated overnight at 4° C. with specific antibodies. Immune complexes were precipitated with Protein G Plus/Protein A agarose beads, washed in RIPA buffer and then boiled in sample loading buffer. Steady state levels of total Erk1/2 and activated Erk1/2 (p-Erk) as well as total AKT protein and activated AKT (p-AKT) protein were assessed by Western blot. […] Proteins were transferred to Immobilon-P or nitrocellulose membranes. Efficiency and equal loading of proteins was evaluated by Ponceau S staining. Membranes were blocked for 1 hr in TBS (25 mM Tris-HCl, pH 7.4, 150 mM NaCl, 2.7 mM KCl) containing 4% (w/v) lowfat milk or 3% BSA (w/v). Membranes were then probed with specific antibodies recognizing target proteins. Proteins were visualized with the SUPERSIGNAL® West Femto Maximum sensitivity substrate kit (Pierce).
BT474 is an erbB2 overexpressing breast carcinoma line that also expresses EGFR, albeit at lower levels. […]

p-Erk1/2 = assay: Clinical tumor biopsies, p-ERK index by quantitative IHC; details: patient 364, head and neck cancer, 1600 mg/day, Day 21
Protocol: To quantify changes in Erk1/2 activation state, a p-Erk index was established for each biopsy. The p-Erk index was the product of the percentage of cells staining positive for p-Erk1/2 in the tissue section and the OD value for p-Erk1/2 immunoreactivity. Investigators preparing and analyzing tissue sections were blinded to both patient tumor type and response to therapy.
“pERK index” is calculated by multiplying the percentage of cells staining positive for p-Erk and the optical density (OD) score, ×100;

erbB2 [3] = molecular target: T1, erbB2; assay: BT474 tumor xenograft, p-Tyr/ErbB-2 and total ErbB-2 by Western blot; format: in vivo, C.B-17 SCID mice; details: 100 mg/kg
Protocol: (§3) The tumor implant was removed after the final treatment dose. Activated receptor (p-Tyr/ErbB-2) was assessed by IP Western blot and total ErbB-2 steady state protein (ErbB-2), total Erk1/2 and activated Erk1/2 (p-Erk1/2) were assessed by Western blot loading equal amounts of protein from tumor biopsies.
Cell extracts were prepared by homogenization as described for HN5 xenografts.
as §3, with “BT474” for “The”, “xenografts (subcutaneous) were established as described in Materials and Methods. […] Controls were treated with vehicle alone. […]” for “implant was removed after the final treatment dose.”

erbB2 [4] = molecular target: T1, erbB2; assay: Clinical tumor biopsies, erbB2 p-tyr by IHC; details: patient 361, 1200 mg/day, Day 21, data not shown
[5] = Plasma concentration in patients; format: in vivo, human; details: oral once a day
Erk1/2 [6] = assay: Western blot of p-Erk1/2 in HN5 cells; format: cell-based, human; details: for p-Erk1/2: HN5, exponentially growing, 72 h
Protocol: as §1, §2
Cell lysates were prepared and total Erk1/2 and activated Erk1/2 (p-Erk1/2) were assessed by Western blot.

AKT [7] = assay: HN5 tumor xenograft, p-AKT and total AKT by Western blot; format: in vivo, CD-1 nude mice
Protocol: (§4) Total Erk1/2, total AKT, activated Erk1/2 (p-Erk1/2), and activated AKT (p-AKT) were assessed by Western blot loading equal amounts of protein from tumor biopsies.
HN5 cells were grown in DMEM supplemented with 10% fetal bovine serum, sodium pyruvate and L-glutamine at 37° C. in a 95/5% air/CO2 atmosphere. […] Cells (2×10^6/mouse) in 0.2 ml were injected into the right flank of CD-1 nude mice. Female CD-1 nude mice were acquired from Charles River Laboratories. Mice were maintained in filter-topped cages in an aseptic environment with laminar flow filtered ventilation. […] Tumors were biopsied pre-treatment and 4 hours after the last dose. All animal surgery was conducted under aseptic conditions. For the initial biopsy, mice were anesthetized with isofluorane inhalation. The skin over the tumor was disinfected with iodine. A small hemostat was used to tease away the skin from the tumor, and scissors were used to make a 1 cm incision over the tumor. A scalpel and forceps were used to remove approximately 100 mg of tumor. The tumor was then frozen in liquid nitrogen. Wound clips were used to close the incision. The anesthetized mice were kept warm until they recovered mobility, usually less than 1-2 minutes. For the terminal biopsy, mice were euthanized with CO2 inhalation, and the remainder of the tumor excised. HN5 tumors were placed on dry ice in vials containing cold isopentane, and stored at −80 C prior to study. BT474 tumor samples were fixed for 2-3 hours in phosphatase inhibitor consisting of sodium fluoride and sodium pervanadate in 10% neutral buffered formalin. Following fixative treatment, BT474 samples were washed in water and stored in 70% ethanol prior to study. Cell extracts were prepared by homogenization in RIPA buffer at 4° C.
as §4

HN5 cells = assay: Apoptosis and growth of HN5 cells; format: cell-based, human; details: data not shown
Erk1/2 [8] = assay: Tumor xenografts, phospho-Erk1/2 and total Erk1/2 by quantitative IHC; format: in vivo, mice; details: data not shown
Excerpt: DAB (Dako) was used as the chromogen.
Inhibition of erbB2/EGFR p-tyr in turn led to the inhibition of downstream activated, phospho-Erk1/2.

[9] = patients with >70% decrease in pERK index

T1 sequence (P04626 23-1255): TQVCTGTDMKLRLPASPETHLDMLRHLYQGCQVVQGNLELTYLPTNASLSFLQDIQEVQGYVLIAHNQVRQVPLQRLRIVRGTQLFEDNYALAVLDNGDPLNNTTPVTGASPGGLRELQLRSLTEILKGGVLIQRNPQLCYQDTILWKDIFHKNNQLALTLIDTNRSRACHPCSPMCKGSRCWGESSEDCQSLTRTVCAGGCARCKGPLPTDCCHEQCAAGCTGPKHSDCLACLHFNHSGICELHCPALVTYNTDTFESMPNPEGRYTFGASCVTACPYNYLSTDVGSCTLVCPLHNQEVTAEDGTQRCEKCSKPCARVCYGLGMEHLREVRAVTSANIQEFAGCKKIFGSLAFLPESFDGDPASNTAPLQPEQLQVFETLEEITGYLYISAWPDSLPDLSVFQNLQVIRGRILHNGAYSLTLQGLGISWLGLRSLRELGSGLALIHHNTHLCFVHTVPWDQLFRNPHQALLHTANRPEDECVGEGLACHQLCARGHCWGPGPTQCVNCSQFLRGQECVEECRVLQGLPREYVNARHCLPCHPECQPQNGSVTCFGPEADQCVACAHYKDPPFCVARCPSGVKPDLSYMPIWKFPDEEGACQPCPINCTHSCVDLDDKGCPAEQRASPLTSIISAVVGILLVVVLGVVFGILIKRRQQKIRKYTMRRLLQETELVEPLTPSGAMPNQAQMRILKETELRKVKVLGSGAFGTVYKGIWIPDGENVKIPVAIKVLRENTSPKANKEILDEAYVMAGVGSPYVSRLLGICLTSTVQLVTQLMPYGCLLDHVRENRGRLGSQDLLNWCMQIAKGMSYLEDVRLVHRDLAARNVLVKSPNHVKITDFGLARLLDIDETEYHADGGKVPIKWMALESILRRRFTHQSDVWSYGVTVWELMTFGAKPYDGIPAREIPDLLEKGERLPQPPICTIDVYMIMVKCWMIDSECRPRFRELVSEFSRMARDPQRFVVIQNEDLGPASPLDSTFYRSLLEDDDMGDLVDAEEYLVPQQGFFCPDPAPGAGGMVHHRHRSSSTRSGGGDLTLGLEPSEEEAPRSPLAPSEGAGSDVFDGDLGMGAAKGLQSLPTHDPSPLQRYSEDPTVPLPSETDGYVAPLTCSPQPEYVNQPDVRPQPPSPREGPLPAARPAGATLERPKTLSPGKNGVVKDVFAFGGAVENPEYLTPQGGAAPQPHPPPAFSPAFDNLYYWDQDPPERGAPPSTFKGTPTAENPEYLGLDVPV

In the case of `CS(=O)(=O)CCNCc1ccc(-c2ccc3ncnc(Nc4ccc(OCc5cccc(F)c5)c(Cl)c4)c3c2)o1` [GW572016, N-{3-Chloro-4-[(3-fluorobenzyl)oxy]phenyl}-6-[5-({[2-(methylsulfonyl)ethyl]amino}methyl)-2-furyl]-4-quinazolinamine], the “increase in percentage of apoptotic cells vs vehicle” value (S1 cells) is reported as 23 fold, the “percentage of cells in S phase and G2/M” value (S1 cells) is reported as “concomitant reduction” and the “percentage of apoptotic cells (sub-G1 peak)” value (S1 cells; vehicle control 2%) is reported as 46%. For the same molecule, the metastatic subcutaneous nodules (solid tumors; patient 361, metastatic breast cancer, 1200 mg/day, Day 21) was “almost all of their metastatic subcutaneous nodules had completely regressed”, the “metastatic lymph node that was sequentially biopsied” value (solid tumors; patient 364, 1600 mg/day, Day 21) was “reduced in size” and the “sensitivity of the patient's tumor to treatment” value (solid tumors; patient 425, inflammatory breast cancer, 1200 mg once per day) was “very sensitive”. For the same molecule, the “Partial Response at eight weeks” value (solid tumors; [9]) was “Partial Response: 2/5”, the “Progression at eight weeks” value (solid tumors; [9]) was “one and Progression: 1/5” and the “Stable Disease at eight weeks” value (solid tumors; [9]) was “Stable Disease: 2/5”. For the same molecule, the “Partial Response at eight weeks” value (solid tumors; patients with no decrease or increase in pERK index) was “Partial Response: 0/3”, the erbB2 total protein (erbB2 [1]) was “neither EGFR nor erbB2 total protein was affected” and the “activated erbB2” value (erbB2 [1]; data not shown) was “inhibition”. The “intensity of staining for p-ERK in the nucleus vs control cells” value (p-ERK) was “less”, the p-AKT (AKT [2]) was “completely inhibited” and the “decrease in p-Erk1/2” value (p-Erk1/2) was greater than 90%. For the same molecule, the “total erbB2 steady state protein levels” value (erbB2 [3]) was “without effects”, the erbB2 p-tyr (erbB2 [4]) was “had not decreased” and the “time by which steady state plasma concentrations were achieved” value [5] was no more than 21 days. For the same molecule, the “downstream p-Erk1/2” value (Erk1/2 [6]; HN5, 5 μM, 24 h serum-free, not reversed by EGF) was “inhibited”, the “total Erk1/2 steady state protein levels” value (Erk1/2 [6]; HN5, 72 h, GW572016 0.5 or 1 μM, Herceptin 10 μg/ml) was “Neither Herceptin™ nor GW572016 reduced” and the p-Erk1/2 (Erk1/2 [6]; 500 nM) was “inhibited”. For the same molecule, the p-Erk1/2 (Erk1/2 [6]; 1 μM) was “inhibited”, the “effect on p-AKT” value (AKT [7]; 10 mg/kg, data not shown) was “little effect” and the p-AKT in tumors (AKT [7]; 30 mg/kg/dose) was “inhibited”. The “total steady state AKT protein levels” value (AKT [7]; 30 mg/kg/dose) was “without affecting”, the apoptosis (HN5 cells) was “significant apoptosis was not seen” and the cell growth (HN5 cells) was “growth arrest”. The p-Erk1/2 levels (Erk1/2 [8]) was “reduced” and the “total Erk1/2 protein” value (Erk1/2 [8]) was “unaffected”.
